30 molecules from ChEMBL document CHEMBL5029157, “Identification of unprecedented ATP-competitive choline kinase inhibitors” (Bioorg Med Chem Lett, 2021) can be followed below.

A short description of data set [1]: Solubility of compound at pH 7. The format is physicochemical. As to conditions: buffer.
Data set [2] is described as follows: Metabolic stability in human liver microsomes assessed as intrinsic clearance. Format: ADME, Microsome. As to conditions: read-out: CLH.
Data set [3] can be described thus: Metabolic stability in rat hepatocyte assessed as intrinsic clearance. Format: ADME, tissue-based. As to conditions: hepatocytes, read-out: CLH.
Data set [4] deals with Choline/ethanolamine kinase (Homo sapiens, UniProt Q9Y259).
Chain of Choline/ethanolamine kinase (Q9Y259 whole entry): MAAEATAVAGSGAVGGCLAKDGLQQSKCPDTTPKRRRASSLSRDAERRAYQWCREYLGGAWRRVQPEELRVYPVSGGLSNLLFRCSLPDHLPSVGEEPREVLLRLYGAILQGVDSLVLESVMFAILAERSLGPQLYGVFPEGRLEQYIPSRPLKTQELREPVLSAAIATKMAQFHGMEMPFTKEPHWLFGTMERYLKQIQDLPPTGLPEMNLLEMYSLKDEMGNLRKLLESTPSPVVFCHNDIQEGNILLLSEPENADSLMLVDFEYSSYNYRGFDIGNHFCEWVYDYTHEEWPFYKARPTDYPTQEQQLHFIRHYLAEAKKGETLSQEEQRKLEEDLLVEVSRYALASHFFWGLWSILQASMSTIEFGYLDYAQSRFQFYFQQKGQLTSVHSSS

In brackets after ≈: the same amount, converted by molar mass. Where only a bound is given, the exact number is not on record here.

The molecule `COc1ccc2nc(NC(=O)[C@H]3CC[C@@H](n4cnc5c(N)nc(Cl)nc54)CC3)sc2c1` returned a solubility in data set [1] of 1 µM (≈ 0.458 µg/mL).
In data set [1], `CN1CCc2nc(NC(=O)[C@H]3CC[C@@H](n4cnc5c(N)nc(F)nc54)CC3)sc2C1` yielded a solubility of 105 µM (≈ 45.2 µg/mL). The results for the CLint scaled in data set [2] and in data set [3] were 13 mL/min/kg and 22 mL/min/kg, respectively.
The molecule `Nc1nc(Cl)nc2c1ncn2[C@H]1CC[C@@H](C(=O)Nc2nc3ccc(O)cc3s2)CC1` yielded a solubility in data set [1] of 3 µM (≈ 1.33 µg/mL).
Same read-out and setting: under `Nc1nc(Cl)nc2c1ncn2[C@H]1CC[C@@H](C(=O)Nc2nc3c(F)cc(F)cc3s2)CC1` stands 1 µM (≈ 0.464 µg/mL).
On to `CC(C)N1CCc2nc(NC(=O)[C@H]3CC[C@@H](n4cnc5c(N)nc(Cl)nc54)CC3)sc2C1`, for which the solubility in data set [1] was 73 µM (≈ 34.7 µg/mL).
`Nc1nc(Cl)nc2c1ncn2[C@H]1CC[C@@H](C(=O)Nc2nc3c(s2)COCC3)CC1`: the solubility in data set [1] came out at 4 µM (≈ 1.74 µg/mL).
Regarding `NC(=O)Cc1ccc2nc(NC(=O)[C@H]3CC[C@@H](n4cnc5c(N)nc(Cl)nc54)CC3)sc2c1`, the solubility in data set [1] came out at 2 µM (≈ 0.97 µg/mL).
Regarding `NC(=O)c1ccc2nc(NC(=O)[C@H]3CC[C@@H](n4cnc5c(N)nc(Cl)nc54)CC3)sc2c1`, the solubility in data set [1] was 3 µM (≈ 1.41 µg/mL).
In data set [4], `COc1cccc(NC(=O)[C@H]2CC[C@@H](n3cnc4c(N)nc(-c5ccc6cn[nH]c6c5)nc43)CC2)c1` returned an IC50 of over 10 µM.
Turning to `COc1cccc(NC(=O)[C@H]2CC[C@@H](n3cnc4c(N)nc(N5CCN(C)CC5)nc43)CC2)c1`, the half-inhibitory concentration (IC50) in data set [4] was over 10 µM.
In data set [1], `Cc1csc(NC(=O)[C@H]2CC[C@@H](n3cnc4c(N)nc(Cl)nc43)CC2)n1` displayed a solubility of 15 µM (≈ 5.88 µg/mL). The CLint scaled in data set [2] was 12 mL/min/kg; in data set [3] it was 34 mL/min/kg.
As for `Nc1nc(Cl)nc2c1ncn2[C@H]1CC[C@@H](C(=O)Nc2nc3ccc(F)cc3s2)CC1`, the concentration in solution in data set [1] (solubility) came to 3 µM (≈ 1.34 µg/mL).
The same measure, in the same setting: the same measure for `Cc1cnc(NC(=O)[C@H]2CC[C@@H](n3cnc4c(N)nc(Cl)nc43)CC2)s1`: 5 µM (≈ 1.96 µg/mL).
`COc1cccc(NC(=O)[C@H]2CC[C@@H](n3cnc4c(N)nc(-c5ccc6[nH]ncc6c5)nc43)CC2)c1` came in with an IC50 in data set [4] of over 10 µM.
With `Nc1nc(Cl)nc2c1ncn2[C@H]1CC[C@@H](C(=O)Nc2nc3c(O)cccc3s2)CC1`, the concentration in solution in data set [1] (solubility) came to 4 µM (≈ 1.78 µg/mL).
Still for that read-out and setting: under `Nc1nc(Cl)nc2c1ncn2[C@H]1CC[C@@H](C(=O)Nc2nc3c(s2)CS(=O)(=O)CC3)CC1` stands 37 µM (≈ 17.8 µg/mL); under `Nc1nc(Cl)nc2c1ncn2[C@H]1CC[C@@H](C(=O)Nc2nc3c(s2)CNCC3)CC1`, 153 µM (≈ 66.2 µg/mL).
In the case of `Nc1ncnc2c1ncn2[C@H]1CC[C@@H](C(=O)Nc2ccc(S(=O)(=O)C(F)(F)F)cc2)CC1`, in data set [4], the IC50 was over 10 µM.
In data set [1], `Nc1nc(Cl)nc2c1ncn2[C@H]1CC[C@@H](C(=O)Nc2nc(C(F)(F)F)cs2)CC1` gave a solubility of 9 µM (≈ 4.01 µg/mL).
The same measure, in the same setting: under `NC(=O)Cc1csc(NC(=O)[C@H]2CC[C@@H](n3cnc4c(N)nc(Cl)nc43)CC2)n1` stands 6 µM (≈ 2.61 µg/mL).
Same read-out and setting: under `COc1cccc2sc(NC(=O)[C@H]3CC[C@@H](n4cnc5c(N)nc(Cl)nc54)CC3)nc12` stands 2 µM (≈ 0.916 µg/mL).
`CN1CCc2nc(NC(=O)[C@H]3CC[C@@H](n4cnc5c(N)nc(Cl)nc54)CC3)sc2C1` gave a solubility in data set [1] of 171 µM (≈ 76.4 µg/mL). Also, the results for the CLint scaled in data set [2] and in data set [3] were 33 mL/min/kg and 49 mL/min/kg, respectively.
With `CS(=O)(=O)c1ccc(NC(=O)[C@H]2CC[C@@H](n3cnc4c(N)ncnc43)CC2)cc1`, in data set [4], the IC50 is over 10 µM.
On to `Cc1csc(NC(=O)[C@H]2CC[C@@H](n3cnc4c(N)nc(F)nc43)CC2)n1`, for which, in data set [1], the concentration in solution (solubility) was 2 µM (≈ 0.751 µg/mL). For the same molecule, the CLint scaled amounted to 12 mL/min/kg in data set [2] and 34 mL/min/kg in data set [3].
Turning to `Cl.Nc1nc(Cl)nc2c1ncn2[C@H]1CC[C@@H](C(=O)Nc2nc3c(s2)CN(C2CC2)CC3)CC1`, in data set [1], the concentration in solution (solubility) came to 13 µM.
Take `Nc1ncnc2c1ncn2[C@H]1CC[C@@H](C(=O)Nc2cccc(S(=O)(=O)C(F)(F)F)c2)CC1`: the IC50 in data set [4] is over 10 µM.
In data set [1], `CC1(C)Cc2nc(NC(=O)[C@H]3CC[C@@H](n4cnc5c(N)nc(F)nc54)CC3)sc2C(C)(C)N1` gave a solubility of 200 µM (≈ 94.5 µg/mL). Moreover, the CLint scaled is 56 mL/min/kg in data set [2] and 84 mL/min/kg in data set [3].
`NC(=O)Cc1cnc(NC(=O)[C@H]2CC[C@@H](n3cnc4c(N)nc(Cl)nc43)CC2)s1` gave a solubility in data set [1] of 97 µM (≈ 42.2 µg/mL).
`CC1(C)Cc2nc(NC(=O)[C@H]3CC[C@@H](n4cnc5c(N)nc(Cl)nc54)CC3)sc2C(C)(C)N1` gave a solubility in data set [1] of 119 µM (≈ 58.2 µg/mL). Also, the CLint scaled in data set [2] is 78 mL/min/kg; in data set [3], 97 mL/min/kg.
Take `Nc1nc(Cl)nc2c1ncn2[C@H]1CC[C@@H](C(=O)Nc2nc(-c3ccccc3)cs2)CC1`: the concentration in solution in data set [1] (solubility) was 5 µM (≈ 2.27 µg/mL).

A word on the solubility: it is the dissolved amount per volume that the medium holds. A low value points to little dissolved substance. The IC50 is the concentration that gives 50% inhibition. The low end stands for higher potency, the high end for lower potency.
